Measured values taken from US20260041640A1 (INCYCLIX BIO, LLC, priority 2023, published 2026).
Like-named read-outs stand apart in the source and are kept apart here.

Experiment: First-in-human clinical study: plasma and whole blood PK of INX-315 (oral QD, ASD tablet)
Assay type: in vivo
Conditions: human, plasma, plasma
Text: All INX-315 tablets were taken at approximately the same time(s) each day.
Samples will also be collected pre-dose on Cycle 1 Days 2, 8, 16, and Day 22, and pre-dose on Day 1 of each subsequent cycle.
Standard non-compartmental PK parameters were estimated.
Geometric mean and geometric CV % will be included in the summary statistics.
PK parameters will be summarized descriptively by dosing cohort. AUC and Cmax values will also be presented in scatter plots. Dose proportionality will be assessed for AUC and Cmax using a power model. The 90% CI of the slope for each PK parameter will be estimated from the model and presented in a summary table.
Cohort 1 enrollment of 6 subjects dosed at 100 mg oral QD was completed in October of 2023.
Patients were upgraded to the 200 mg QD dose level and PK/PD plasma parameters were measured (FIG. 18A).
Patients were administered the 200 mg QD and 300 mg QD dose levels and PK/PD plasma parameters were measured.

NS(=O)(=O)c1ccc(Nc2ncc3cc4n(c3n2)C2(CCCCC2)C(=O)NN4)cc1 [INX-315]
concentration at 15 day (oral, 100 mg, 100 mg QD, Day 15 observed, mean of first two patients, read-out: Cmin^free): 9.2 ng/mL
concentration at 12 h (oral, 100 mg, 100 mg QD, first dose level (Table 5), read-out: C12 hr): 252 ng/mL
concentration at 24 h (oral, 100 mg, 100 mg QD, first dose level (Table 5), read-out: C24 hr): 177 ng/mL
Cmax (oral, 100 mg, 100 mg QD, first dose level (Table 5), read-out: Cmax): 388 ng/mL
AUC (oral, 100 mg, 100 mg QD, removing esophageal cancer patient with low exposure, read-out: Total Area (adjusted AUC)): 2740 ng·h/mL
concentration at 0.5 h (oral, 200 mg, 200 mg QD (n = 2), 0.5 hr): 69.6 ng/mL
concentration at 1 h (oral, 200 mg, 200 mg QD (n = 2), 1.0 hr): 109 ng/mL
concentration at 2 h (oral, 200 mg, 200 mg QD (n = 2), 2.0 hr): 246 ng/mL
concentration at 6 h (oral, 200 mg, 200 mg QD (n = 2), 6.0 hr): 343 ng/mL
concentration at 8 h (oral, 200 mg, 200 mg QD (n = 2), 8.0 hr): 374 ng/mL
concentration at 24 h (oral, 200 mg, 200 mg QD (n = 2), […], read-out: Mean plasma concentration): 141 ng/mL
AUC (oral, 200 mg, 200 mg QD (n = 2), read-out: Total Area (AUC)): 6260 ng·h/mL
AUC(0-t) (oral, 200 mg, 200 mg QD, Day 1, Cohort 2, read-out: AUClast, geometric mean): 8940 ng·h/mL
AUC(0-t) (oral, 200 mg, 200 mg QD, Day 1, Cohort 2, read-out: AUClast, median): 7970 ng·h/mL
Cmax (oral, 200 mg, 200 mg QD, Day 1, Cohort 2, read-out: Cmax, geometric mean): 590 ng/mL
Cmax (oral, 200 mg, 200 mg QD, Day 1, Cohort 2, read-out: Cmax, median): 577 ng/mL
Tmax (oral, 200 mg, 200 mg QD, Day 1, Cohort 2, read-out: Tmax, median): 8 h
Tmax (oral, 200 mg, 200 mg QD, Day 1, individual subjects, read-out: Tmax): 8 h
half-life (oral, 200 mg, 200 mg QD, Day 1, individual subjects, read-out: t1/2 (converted)): 18.1 h
AUC(0-t) (oral, 200 mg, 200 mg QD, Day 15, Cohort 2, read-out: AUClast, geometric mean): 12200 ng·h/mL
AUC(0-t) (oral, 200 mg, 200 mg QD, Day 15, Cohort 2, read-out: AUClast, median): 13700 ng·h/mL
Cmax (oral, 200 mg, 200 mg QD, Day 15, Cohort 2, read-out: Cmax, geometric mean): 922 ng/mL
Cmax (oral, 200 mg, 200 mg QD, Day 15, Cohort 2, read-out: Cmax, median): 888 ng/mL
Tmax (oral, 200 mg, 200 mg QD, Day 15, Cohort 2, read-out: Tmax, median): 6 h
half-life (oral, 200 mg, 200 mg QD, Day 15, Cohort 2, read-out: t1/2, geometric mean (converted)): 10.8 h
half-life (oral, 200 mg, 200 mg QD, Day 15, Cohort 2, read-out: t1/2, median (converted)): 10.5 h
Cmax (oral, 200 mg, 200 mg QD, Day 15, individual subjects, read-out: Cmax): 779 ng/mL
half-life (oral, 200 mg, 200 mg QD, Day 15, individual subjects, read-out: t1/2 (converted)): 8.36 h
AUC (oral, 300 mg, Cohort 3 (300 mg QD), Day 1, individual subjects, read-out: AUC Plasma): 8200 ng·h/mL
AUC (oral, 300 mg, Cohort 3 (300 mg QD), Day 15, Tlast = 6 hours, read-out: AUC Plasma): 4570 ng·h/mL
AUC (oral, 300 mg, Cohort 3 (300 mg QD), Day 15, individual subjects, read-out: AUC Plasma): 5820 ng·h/mL
AUC(0-t) (oral, 300 mg, 300 mg QD cohort, Day 1, geometric mean, read-out: AUClast, Geometric Mean): 9550 ng·h/mL
Cmax (oral, 300 mg, 300 mg QD cohort, Day 1, geometric mean, read-out: Cmax, Geometric Mean): 628 ng/mL
AUC(0-t) (oral, 300 mg, 300 mg QD cohort, Day 1, individual subjects, read-out: AUClast): 10200 ng·h/mL
Cmax (oral, 300 mg, 300 mg QD cohort, Day 1, individual subjects, read-out: Cmax): 727 ng/mL
Tmax (oral, 300 mg, 300 mg QD cohort, Day 1, individual subjects, read-out: Tmax): 8 h
half-life (oral, 300 mg, 300 mg QD cohort, Day 1, individual subjects, read-out: t1/2 (converted)): 17.3 h
AUC(0-t) (oral, 300 mg, 300 mg QD cohort, Day 1, median, read-out: AUClast, Median): 10200 ng·h/mL
Cmax (oral, 300 mg, 300 mg QD cohort, Day 1, median, read-out: Cmax, Median): 615 ng/mL
Tmax (oral, 300 mg, 300 mg QD cohort, Day 1, median, read-out: Tmax, Median): 8 h
AUC(0-t) (oral, 300 mg, 300 mg QD cohort, Day 15, individual subjects, read-out: AUClast): 5590 ng·h/mL
Cmax (oral, 300 mg, 300 mg QD cohort, Day 15, individual subjects, read-out: Cmax): 568 ng/mL
Tmax (oral, 300 mg, 300 mg QD cohort, Day 15, individual subjects, read-out: Tmax): 1 h
half-life (oral, 300 mg, 300 mg QD cohort, Day 15, individual subjects, read-out: t1/2 (converted)): 9.23 h
AUC(0-t) (po, 100 mg, 100 mg QD cohort, Day 1, geometric mean, read-out: AUClast, Geometric Mean): 2020 ng·h/mL
Cmax (po, 100 mg, 100 mg QD cohort, Day 1, geometric mean, read-out: Cmax, Geometric Mean): 148 ng/mL
half-life (po, 100 mg, 100 mg QD cohort, Day 1, geometric mean, read-out: t1/2, Geometric Mean (converted)): 13.1 h
half-life (po, 100 mg, 100 mg QD cohort, Day 1, individual subjects, read-out: t1/2 (converted)): 11.5 h
AUC(0-t) (po, 100 mg, 100 mg QD cohort, Day 1, median, read-out: AUClast, Median): 2280 ng·h/mL
Cmax (po, 100 mg, 100 mg QD cohort, Day 1, median, read-out: Cmax, Median): 187 ng/mL
